Here are results for one molecule from patent US20220409590A1, “CHEMOTHERAPY FOR GLIOMA THROUGH NEURONAL CONVERSION” (The Penn State Research Foundation, priority 2019, published 2022).

For this experiment, the system named is U251 cells. Briefly: Reprogramming of U251 cells; doublecortin immunostaining. It is filed as cell-based, human. The procedure:
U251 cells were maintained in minimal essential media (MEM) supplemented with 2 mM glutamine, 1% non-essential amino acids, 1 mM sodium pyruvate, and 10% fetal bovine serum. Fifty thousand cells were seeded on to coverslips into 24-well plates. After 4 days in MEM, the cells were treated with the compound cocktail or dimethyl sulfoxide for another 4 days in Ham's F-12 (F-12) media supplemented with N2, B27 and insulin. The five-compound cocktail, referred to as described above as SLCDS, contained 5 μM SB431542, 0.25 μM LDN193189, 5 μM CHIR99021, 5 μM DAPT, and 40 μM SKL2001. After SLCDS treatment, F-12 media was changed every 4 days for 12 days. Cells were then crosslinked with 4% paraformaldehyde for 12 minutes and washed with Tris buffered saline (TBS). After three 5-minute washes, cells were blocked with 2.5% bovine serum albumin in Tris-buffered saline (TBS) with 0.1% Triton X-100 (TBSTx) for 1 hour. Primary antibody (goat Doublecortin, 1:500 dilution, sc-8066, Santa Cruz) were incubated with fixed cells overnight at 4° C. After three 5-minute washes, the secondary antibody (anti-goat Cy5, 1:1000) was incubated with fixed cells overnight at 4° C. After three 5-minute washes, the cover slip was mounted using mounting media. The fluorescent signal was detected using an ECHO Revolve microscope.

Consider `O=C(NCCCn1ccnc1)c1cc(-c2ccco2)on1` [SKL2001], for which, for the setting “SKL2001 in combination with SB431542, LDN193189, CHIR99021 and DAPT in U251 cells, FIG. 2”, the “dose response of doublecortin expression” value is on record as “dose-response relationship is established”. Further, under “as evidenced by doublecortin expression”, the “conversion of U251 glioblastoma cells to neuronal cells” value was “efficient conversion”.
